# Experimental data: US7834164B2 (priority 2006, dated 2010)
# Entries after “also recorded” stand apart in the source; their conditions may differ. Bridge positions count the residues as written; N and C are the ends. Square brackets hold non-standard residues; d marks the D form. Ends that are not written are not given here. Peptide text beside a SMILES is read from it. mPEG 20 kDa = 20 kDa monomethoxy-PEG attached via aldehyde at the N-terminus; hArg = N=C(N)NCCCC[C@H](N)C(=O)O
# Tests used:
# [1] = biological target: T1, human Kv1.3 (Homo sapiens, UniProt P22001); assay type: cell-based; parameters: host or cells: HEK293
# [2] = tested on: IL-2 production in human whole blood; assay type: cell-based
# [3] = tested on: IFN-g production in human whole blood; assay type: cell-based
# [4] = tested on: CD40L on T cells in human whole blood; assay type: cell-based
# [5] = tested on: IL-2R on T cells in human whole blood; assay type: cell-based
# [6] = tested on: IFNγ production from human PBMCs; assay type: cell-based
# [7] = tested on: IFNγ production from human PBMCs; assay type: cell-based; remark: listed apart in the source
# [8] = tested on: T cell proliferation in human PBMCs; test: T cell proliferation (3H-thymidine incorporation), anti-CD3/anti-CD28 stimulated PBMCs; assay type: cell-based; conditions: aCD3/aCD28 stimulated PBMCs from two normal donors
# Text: Inhibition of T cell proliferation following anti-CD3 and anti-CD28 antibody stimulation of PBMCs. PBMC's were previously isolated from normal human donor Leukophoresis packs, purified by density gradient centrifugation (Ficoll Hypaque), cryopreserved in CPZ Cryopreservation Medium Complete (INCELL, MCPZF-100 plus 10% DMSO final). PBMC's were thawed (95% viability), washed, and seeded at 2×10^5 cells per well in culture medium (RPMI medium 1640; GIBCO) supplemented with 10% fetal calf serum, 100 U/ml penicillin, […] streptomycin, 2 mM L-glutamine, 100 μM non-essential amino acids, and 20 μM 2-ME) in 96-well flat-bottom tissue culture plates. Cells were pre-incubated with either anti-human CD32 (FcyRII) blocking antibody (per manufacturers instructions EASY SEP Human Biotin Selection Kit #18553, StemCell Technologies Vancouver, BC) or Fc-L10-ShK (100 nM-0.001 nM final) for 45 min. Fc-L10-ShK (100 nM-0.001 nM final) was then added to the cells containing anti-human CD32 blocking antibody while medium was added to the cells containing Fc-L10-ShK. Both sets were incubated for an additional 45 min before stimulating for 48 hr with aCD3/aCD28 (0.2 ng/ml and 100 ng/ml, respectively). Final assay volume was 200 ul. […] Cells were then harvested onto glass fiber filters and radioactivity was measured in a B-scintillation counter.
# [9] = biological target: T1, human Kv1.3; test: Immunohistochemistry, binding to HEK 293 cells overexpressing human Kv1.3; parameters: expressed in transfected cells; conditions: 5 μg/ml, fixed cells, confocal microscopy
# Protocol: Immunohistochemistry analysis of Fc-L10-ShK[1-35] binding to HEK 293 cells overexpressing human Kv1.3. HEK 293 cells overexpressing human Kv1.3 (HEK Kv1.3) were obtained from BioFocus plc (Cambridge, UK) and maintained per manufacturer's recommendation. The parental HEK 293 cell line was used as a control. Cells were plated on Poly-D-Lysine 24 well plates (#35-4414; Becton-Dickinson, Bedford, Mass.) and allowed to grow to approximately 70% confluence. HEK KV1.3 were plated at 0.5×10e5 cells/well in 1 ml/well of medium. HEK 293 cells were plated at a density of 1.5×10e5 cells/well in 1 ml/well of medium. Before staining, cells were fixed with formalin (Sigma HT50-1-1 Formalin solution, diluted 1:1 with PBS/0.5% BSA before use) by removing cell growth medium, adding 0.2 ml/well formalin solution and incubating at room temperature for ten minutes. Cells were stained by incubating with 0.2 ml/well of 5 μg/ml Fc-L10-ShK[1-35] in PBS/BSA for 30′ at room temperature. Fc-L10-ShK[1-35] was aspirated and then the cells were washed one time with PBS/0.5% BSA. Detection antibody (Goat F(ab)2 anti-human IgG-phycoerythrin; Southern Biotech Associates, Birmingham, Ala.) was added to the wells at 5 μg/ml in PBS/0.5% BSA and incubated for 30′ at room temperature. Wash cells once with PBS/0.5% BSA and examine using confocal microscopy (LSM 510 Meta Confocal Microscope; Carl Zeiss AG, Germany). […]
# [10] = biological target: T1, human Kv1.3; assay type: binding; parameters: expressed in transfected cells
# T1 sequence (P22001 whole entry): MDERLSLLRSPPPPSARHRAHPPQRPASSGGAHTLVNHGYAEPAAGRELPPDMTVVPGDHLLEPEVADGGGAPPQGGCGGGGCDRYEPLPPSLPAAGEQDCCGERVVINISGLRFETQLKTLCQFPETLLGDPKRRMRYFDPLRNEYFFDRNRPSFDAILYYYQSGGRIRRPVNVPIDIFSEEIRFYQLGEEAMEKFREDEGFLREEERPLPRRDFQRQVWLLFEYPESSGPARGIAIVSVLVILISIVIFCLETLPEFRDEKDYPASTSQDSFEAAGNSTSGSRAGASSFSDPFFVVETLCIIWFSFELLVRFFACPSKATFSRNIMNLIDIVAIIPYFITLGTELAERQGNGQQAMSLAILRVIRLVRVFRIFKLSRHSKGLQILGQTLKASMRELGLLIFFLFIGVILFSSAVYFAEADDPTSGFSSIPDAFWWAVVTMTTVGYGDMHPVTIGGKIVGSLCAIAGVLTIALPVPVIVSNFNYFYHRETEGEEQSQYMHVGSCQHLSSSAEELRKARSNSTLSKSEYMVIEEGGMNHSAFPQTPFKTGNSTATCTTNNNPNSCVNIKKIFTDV
molecule,measurement,setting,value
"N-Terminally PEGylated-Des-Arg1-ShK: folded ShK[2-35] N-terminally mono-PEGylated with 20 kDa MeO-PEG-aldehyde by reductive amination ({mPEG 20 kDa}-SCIDTIPKSRCTAFQCKHSMKYRLSFCRKTCGTC; also: folded, disulfides present but pairing not given here)",block of human Kv1.3 current (in words),[1],active in blocking human Kv1.3
"CC[C@H](C)[C@@H]1NC(=O)[C@H](CCCCN)NC(=O)[C@@H](NC(=O)[C@H](CCCCN)NC(=O)[C@@H](NC(=O)[C@H](CC(N)=O)NC(=O)[C@@H](NC(=O)[C@@H](NC(=O)[C@@H](NC(=O)CN)C(C)C)[C@@H](C)CC)[C@@H](C)CC)C(C)C)CSSC[C@@H]2NC(=O)[C@H](CCCCN)NC(=O)CNC(=O)[C@H](Cc3ccccc3)NC(=O)[C@H](CCCNC(=N)N)NC(=O)[C@H](CCSC)NC(=O)CNC(=O)[C@H](C)NC(=O)[C@H](CCCCN)NC(=O)[C@H](CCCCN)NC(=O)[C@@H]3CSSC[C@@H](C(=O)N[C@H](C(=O)N4CCC[C@H]4C(=O)N[C@@H](CCCCN)C(=O)O)[C@@H](C)O)NC(=O)[C@H](Cc4c[nH]cn4)NC(=O)[C@H](CSSC[C@H](NC(=O)[C@H](CCC(N)=O)NC(=O)[C@H](CCCNC(=N)N)NC(=O)[C@H](CO)NC1=O)C(=O)N[C@@H](CC(C)C)C(=O)N[C@@H](CCC(=O)O)C(=O)N1CCC[C@H]1C(=O)N3)NC(=O)[C@H](CCCCN)NC(=O)CNC(=O)[C@H](CC(N)=O)NC(=O)[C@H](C)NC2=O [OSK1[Ala-29]] (H-GVIINVKCKISRQCLEPCKKAGMRFGKCANGKCHCTPK-OH; disulfide 8-28, 14-33, 18-35)",potency in blocking the cytokine response relative to cyclosporin A,[2],several orders of magnitude more potent
"IbTx: BKCa channel inhibitor peptide, purchased from Bachem (QFTDVDCSVSKECWSVCKDLFGVDRGKCMGKKCRCYQ; Definition of Artificial Sequence: Synthetic peptide)",thapsigargin-induced IL-2 production in human whole blood (in words),[2],no significant activity
same,thapsigargin-induced IFN-g production in human whole blood (in words),[3],no significant activity
same,thapsigargin-induced upregulation of CD40L on T cells in human whole blood (in words),[4],no significant activity
same,thapsigargin-induced upregulation of the IL-2R on T cells in human whole blood (in words),[5],no significant activity
"SEQ ID No: 4989: OSK1 analog without beta strand 1 (labeled des 1-7), Table 42 (CKISRQCLKPCKDAGMRFGKCMNGKCHC-NH2; ends and bridges not checked)",blockade of the whole blood cytokine response (IL-2 and IFNg; in words),[2],retain activity in blocking inflammation
Fc-L10-OSK1[K7S]: Fc-L10 fusion of OSK1 with lysine to serine at position 7,hKv1.1/hKv1.3,[1],269
"Fc-L10-OSK1[E16K,K20D]: Fc-L10 fusion of OSK1 with E16K and K20D substitutions (GVIINVKCKISRQCL[hArg]PCKDAGMRFGKCMNGKCACGGG; cysteine pairing not given here; also: Fc-L10 fusion)",fold difference in Kv1.3 potency compared to Fc-L10-OSK1,[1],1.3 fold
same,hKv1.1/hKv1.3,[1],403
Fc-L10-ShK[1-35]: Fc region of human IgG1 fused via L10 linker to Kv1.3 inhibitor peptide ShK[1-35],extent of inhibition of IFNγ production,[6],complete inhibition
same,extent of inhibition of IFNg production,[7],nearly complete inhibition
same,inhibition of T cell proliferation,[8],potently inhibits proliferation of T cells in a dose-dependent manner
same,thapsigargin-induced upregulation of CD40L on T cells in human whole blood (in words),[4],suppressed
same,thapsigargin-induced upregulation of the IL-2R on T cells in human whole blood (in words),[5],suppressed
same,binding to Kv1.3 overexpressing versus untransfected HEK 293 cells,[9],binds to Kv1.3 overexpressing HEK 293 cells but shows little binding to untransfected cells
same,response in enzyme-immunoassay on fixed HEK 293 cells stably transfected with human Kv1.3,[10],dose-dependent increase in response
"Fc-L10-OSK1[K7S,E16K,K20D]: Fc-L10 fusion of OSK1 with K7S, E16K and K20D substitutions",hKv1.1/hKv1.3,[1],12
Fc-L10-ShK[2-35]: human IgG1 Fc fused via 10 amino acid linker to ShK[2-35],thapsigargin-induced IL-2 production in human whole blood (in words),[2],suppressed
same,thapsigargin-induced IFN-g production in human whole blood (in words),[3],suppressed
"FcLoop-L2-ShK-L2: ShK inserted into human IgG1 Fc loop with Gly linkers (protein, Definition of Artificial Sequence: Synthetic protein) MDKTHTCPPCPAPELLGGPSVFLFPPKPKDTLMISRTPEVTCVVVDVSHEDPEVKFNWYVDGVEVHNAKTKPREEQYNSTYRVVSVLTVLHQDWLNGKEYKCKVSNKALPAPIEKTISKAKGQPREPQVYTLPPSRDELGGRSCIDTIPKSRCTAFQCKHSMKYRLSFCRKTCGTCGGTKNQVSLTCLVKGFYPSDIAVEWESNGQPENNYKTTPPVLDSDGSFFLYSKLTVDKSRWQQGNVFSCSVMHEALHNHYTQKSLSLSPGK",blockade of the whole blood cytokine response (IL-2 and IFNg; in words),[2],potent blockade
PEGylated CH2-OSK1: CH2-OSK1 fusion protein mono-PEGylated with 20 kD methoxy-PEG-aldehyde (conjugate) MGGHHHHHHGGGPSVFLFPPKPKDTLMISRTPEVTCVVVDVSHEDPEVKFNWYVDGVEVHNAKTKPREEQYNSTYRVVSVLTVLHQDWLNGKEYKCKVSNKALPAPIEKTISGGGGSGGGGSGVIINVKCKISRQCLEPCKKAGMRFGKCMNGKCHCTPK,blockade of the whole blood cytokine response (IL-2 and IFNg; in words),[2],active in blocking inflammation; also recorded: modest blockade
"FcLoop-L2-OsK1-L2: OsK1 inserted into human IgG1 Fc loop between Leu139 and Thr140 with Gly linkers (protein, Definition of Artificial Sequence: Synthetic protein) MDKTHTCPPCPAPELLGGPSVFLFPPKPKDTLMISRTPEVTCVVVDVSHEDPEVKFNWYVDGVEVHNAKTKPREEQYNSTYRVVSVLTVLHQDWLNGKEYKCKVSNKALPAPIEKTISKAKGQPREPQVYTLPPSRDELGGGVIINVKCKISRQCLEPCKKAGMRFGKCMNGKCHCTPKGGTKNQVSLTCLVKGFYPSDIAVEWESNGQPENNYKTTPPVLDSDGSFFLYSKLTVDKSRWQQGNVFSCSVMHEALHNHYTQKSLSLSPGK",blockade of the whole blood cytokine response (IL-2 and IFNg; in words),[2],potent blockade
